The test system of the first experiment is human nerve extract. Briefly: Phage display selection on plates coated with human nerve extract (Plated Nerve2), NextGen sequence counts. It counts as binding. The following applies: unique sequence count (relative enrichment); Plated Nerve2 only. The protocol: Several m13 phage libraries were constructed expressing randomized variants of a parent peptide (QVPWEEPYYVVKKS-SGGL; SEQ ID NO: 576). In particular, the first 14 amino acids of the parent peptide were randomized using degenerate oligonucleotide synthesis to obtain a diverse set of peptides with a mutation rate of about 50% per residue.
To accomplish this, synthesis was carried out by the XXK codon design approach, where X is any base and K is G or T. To bias synthesis towards the parent sequence, synthesis was carried out at each X position with a mixture of about 70%-85% of the parent nucleotide and 15-30% of the remaining 3 nucleotides. The resulting molecules were inserted into fADL-1e (Antibody Design Laboratories), which is a type 3 phage display vector having a cloning site on the N-terminal side of the full-length gene III protein. The fusion proteins are directed to the periplasm by the PelB leader peptide, which is inserted in the vector […].
Collectively, the phage display libraries used in the screens comprised about 600 million peptides, with sequencing analysis confirming a mutation rate of about 50% per residue.
Phage libraries were independently processed, as follows, with five biological samples: two independent samples of excised human nerve tissue, one sample of a human nerve extract, and two independent samples of human muscle tissue, as follows:
Human Nerve Extracts: Phage libraries were incubated for up to 24 hours at 4° C. in 96 well plates that had been coated with a human nerve extract. Plates were then washed with PBS and phage were eluted using 0.2M glycine pH 2.0. Phage supernatants where then neutralized with Tris pH 9.0 prior to plating on TG1 bacteria and LB agar plates. Colonies were counted to determine titer followed by DNA preparation of pools of phage and NextGen sequencing. After rounds of selection, phage were pooled and amplified for iterative selection. Phage that eluted by 0.2M glycine pH 2.0 (the nerve binders) at each round were sequenced. NextGen sequencing of pools after 2, 3 and 4 rounds of selection were used to isolate candidate sequences that were further analyzed using bioinformatics.
NextGen sequencing of pools after 2, 3 and 4 rounds of selection were used to isolate candidate sequences from each of the five samples. These five data sets were then analyzed as described in the next section.
Peptide and vector sequences were translated starting at the first start codon in the nucleotide sequence. […] Trimmed peptides with identical sequences were combined and quantified according to their frequency (count).
Following processing, an R script was written to merge the unique peptide sequences (with counts 6 or greater) from the 5 different data sets to analyze the overlap between nerve and muscle binding activity.
For the single Nerve2, Nerve3, and Plated Nerve2 (pn2) subsets, the number of counts for each group was set at a threshold giving rise to at least 100 peptides. […] As highlighted in yellow in FIG. 1B, the representative group also included 6 unique peptides overlapping between nerve2 and nerve3, 200 unique peptides overlapping between nerve2 and plated nerve2 (at least 60 counts), 4 unique peptides overlapping between nerve3 and plated nerve2. Finally, as highlighted in green in FIG. 1B, the representative group also included […] common to the nerve2, nerve3, and plated nerve2 sets.
Substance 450 (QFAWSQSYAYSSTT) [compound 450] displayed a Count of 107.

451 (QGQWDKPYDAVQNS) [compound 451]: the Count is given as 88.

452 (QIPGDAQYRLVKRS) [compound 452]: the Count amounted to 80.

For 453 (QIPWTQPQYDVTPP) [compound 453], the Count was found to be 79.

As to 454 (HVELESSYYFVNNS) [compound 454], the Count amounted to 78.

455 (QFPLAEPYYHLTES) [compound 455]: the Count is listed as 77.

The substance 456 (HFDWEEPYYDASKA) [compound 456] came in with a Count of 73.

457 (SYEWEDPYYDLKYS) [compound 457]: the Count is reported as 73.

For the substance 458 (NVTGAEYYYRMNNY) [compound 458], the Count was 67.

The substance 459 (HVSCEVPCYGALAS) [compound 459] registered a Count of 66.

In turn, 460 (HDASEGAYYVERNS) [compound 460] showed a Count of 65.

Turning to 461 (QFGWEEPYYVLHTV) [compound 461], the Count worked out at 65.

The substance 462 (HLSREGTYYAVKQP) [compound 462] yielded a Count of 64.

Turning to 463 (QLPLYDPYYTVRTS) [compound 463], the Count came out at 63.

Another experiment deals with excised human nerve tissue. As to the kind of experiment: Phage display selection on excised human nerve tissue (Nerve2, Nerve3), NextGen sequence counts. The class given is binding. The settings on record: unique sequence count (relative enrichment); Nerve3 only. The procedure, abridged: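 Randomized parent-peptide m13 phage libraries (about 50% mutation per residue) selected on washed excised human nerve tissue over multiple rounds, washing nerve pellet with PBS. NextGen sequencing of pools after rounds 2, 3 and 4; translated peptides counted by frequency, with counts 6 or greater retained.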
In the case of 378 (HVKRIETYYVFTKS) [compound 378], the Count came out at 258.

As to 379 (RIHLYQPYSILKNY) [compound 379], the Count is given as 258.

The substance 380 (QFTSEETHYVVNKS) [compound 380] registered a Count of 257.

Substance 381 (QHPWEDPYKIFNKY) [compound 381] displayed a Count of 240.

The substance 382 (DVPWPNAYNFGIKS) [compound 382] displayed a Count of 238.

In the case of 383 (DVPFEHSYYGEQQY) [compound 383], the Count stood at 237.

In the case of 384 (EFLGEAPYYVVSRS) [compound 384], the Count turned out to be 236.

In turn, 385 (HVSGEEPYTVGNTS) [compound 385] displayed a Count of 234.

386 (QFQLDQSYYSFNTL) [compound 386] yielded a Count of 231.

In turn, 387 (QILRVHPDYVVVNP) [compound 387] yielded a Count of 231.

388 (HFPWDEAYLVVKNP) [compound 388] registered a Count of 230.

Substance 389 (HFSSQESNSGGKKW) [compound 389] displayed a Count of 230.

390 (HISGEDPYFILQNS) [compound 390] showed a Count of 212.

Substance 391 (TFQYEQPNLVVKNA) [compound 391] yielded a Count of 207.

392 (LLAWDEQDYFLRKT) [compound 392] came in with a Count of 199.

393 (HINWDKRYAVVITY) [compound 393]: the Count is 197.

For the substance 394 (HFPSEYPFDLVSKS) [compound 394], the Count is 196.

Substance 395 (QFLWQQPDHVRRKS) [compound 395] returned a Count of 196.

396 (QIVLNAPYYVVKTS) [compound 396]: the Count was 189.

Consider 397 (TVPAHNPYYLVKQT) [compound 397], for which the Count turned out to be 185.

Regarding 398 (QDPSVDPYYVDRSS) [compound 398], the Count came out at 181.

In turn, 399 (QFHCHGACYIVKNS) [compound 399] returned a Count of 180.

400 (RLPQHESYIVGKIS) [compound 400] gave a Count of 174.

Turning to 401 (RVYWIDPYYIVNES) [compound 401], the Count was determined as 174.

Consider 402 (QIPLKTPYNVVKKF) [compound 402], for which the Count came to 171.

As for 403 (QFPQGEAGYIAKSF) [compound 403], the Count is on record as 163.

The substance 404 (QFYWDQSNYGEQKP) [compound 404] displayed a Count of 161.

The substance 405 (HVPWAGSSDVLKVT) [compound 405] had a Count of 160.

406 (QVPWEKPVSFVQKS) [compound 406] registered a Count of 159.

Substance 407 (HVWWEDPYYVVRKT) [compound 407] had a Count of 158.

As to 408 (WLHWEQPYWTVKKS) [compound 408], the Count was 143.

In turn, 409 (LFAGENGYFTVRQF) [compound 409] yielded a Count of 139.

The substance 410 (QVSWVYPPNDVIVS) [compound 410] displayed a Count of 133.

Regarding 411 (NDPWPVPYYMVKNS) [compound 411], the Count is reported as 130.

The substance 412 (QVQWQVPYYVVKKP) [compound 412] yielded a Count of 128.

Substance 413 (HFPLQEPYYVVKNS) [compound 413] had a Count of 127.

As for 414 (QGSSVATSSVLTML) [compound 414], the Count was 123.

As for 415 (QPCADKPYCVHTIT) [compound 415], the Count was found to be 123.

Turning to 416 (HVWWEEAHYSWKHS) [compound 416], the Count amounted to 120.

417 (DLFVEEPYLGVIKF) [compound 417] displayed a Count of 117.

In turn, 418 (YSLWEDLIFNMQNS) [compound 418] yielded a Count of 116.

In turn, 419 (QIPWVEASNVLISF) [compound 419] returned a Count of 115.

420 (QFGQENHNHFVRKS) [compound 420] displayed a Count of 113.

421 (QVSLVESRSVLKIL) [compound 421] came in with a Count of 110.

Substance 422 (AVQRAKPYYAVQNS) [compound 422] registered a Count of 109.

Turning to 423 (HLLGDYRFWAFTNA) [compound 423], the Count is given as 109.

Substance 424 (ESPWAPPYYVVKKS) [compound 424] gave a Count of 107.

Take 425 (QIPTVEPYYEGKKS) [compound 425]: the Count is listed as 105.

With 426 (QVRGGQPDQVLRLS) [compound 426], the Count is 105.

Substance 427 (FVARNEPFYVVGTS) [compound 427] registered a Count of 104.

In the case of 428 (QIPLEEMYYVVRTY) [compound 428], the Count was 103.

For the substance 429 (QVSSVGPNHVVKKI) [compound 429], the Count worked out at 102.

With 430 (QLPWGKPYNVVVYS) [compound 430], the Count is 101.

Turning to 431 (QTPWQVPGYNMLNS) [compound 431], the Count was determined as 99.

Turning to 432 (AYLSEQLNYVMKNS) [compound 432], the Count is listed as 98.

433 (QASSEAPSYPVVKS) [compound 433] registered a Count of 95.

The substance 434 (LDQWHTPNYVVRKS) [compound 434] came in with a Count of 92.

Take 435 (QLLWDPPSYFVNNS) [compound 435]: the Count stood at 92.

As for 436 (DVPWEQPYFVVRNS) [compound 436], the Count is listed as 90.

On to 437 (QVPYGQSFVVGTSS) [compound 437], for which the Count is reported as 90.

438 (QLRWEDQYAHVEKS) [compound 438] yielded a Count of 89.

Take 439 (HVAWKAPYHFTKNS) [compound 439]: the Count is on record as 87.

For the substance 440 (DGLYVRSFYVLQHS) [compound 440], the Count is 86.

441 (QFALKGLNGDFQKS) [compound 441] displayed a Count of 83.

Substance 442 (QFPSAETYRIVKKF) [compound 442] displayed a Count of 83.

443 (QLTWELGYHAFVKP) [compound 443] had a Count of 83.

For 444 (QLLRNLSYDGAKYS) [compound 444], the Count is listed as 82.

445 (QLRVKLQYDVIANN) [compound 445] registered a Count of 81.

For the substance 446 (QVPAREPNHIVKKS) [compound 446], the Count turned out to be 80.

447 (SAREQGTFYFVNNS) [compound 447] gave a Count of 80.

As for 448 (LFPKYAPHESVKMS) [compound 448], the Count amounted to 78.

The substance 449 (QVPGNELYFVLKQY) [compound 449] registered a Count of 77.

The values above are taken from US20240207422A1, “NERVE TARGETING PEPTIDE CONJUGATES AND METHODS OF USE” (Alume Biosciences, Inc., priority 2022, published 2024).
